Where two headings read alike, the source gives them in different places.
Assays:
[1] = system: MDA-MB-231 human breast cancer cells; assay: Alamar Blue cell viability (antiproliferative) assay; format: cell-based; conditions: read-out: IC50
K-562 = assay: NCI-60 SRB screen, leukemia; format: cell-based, human; conditions: for GI50: Homo sapiens, K562, 48 h, read-out: GI50
MOLT-4 = assay: NCI-60 SRB screen, leukemia; format: cell-based, human; conditions: MOLT-4, 48 h; for GI50: Homo sapiens, five dose 0.01–100 µM, read-out: GI50
A549/ATCC = assay: NCI-60 SRB screen, non-small cell lung cancer; format: cell-based, human; conditions: 48 h; for GI50: Homo sapiens, A549/ATCC, five dose 0.01–100 µM, read-out: GI50
EKVX = assay: NCI-60 SRB screen, non-small cell lung cancer; format: cell-based, human; conditions: one dose 10 µM, 48 h
HOP-92 = assay: NCI-60 SRB screen, non-small cell lung cancer; format: cell-based, human; conditions: HOP-92, 48 h; for GI50: Homo sapiens, five dose 0.01–100 µM, read-out: GI50
NCI-H332M = assay: NCI-60 SRB screen, non-small cell lung cancer; format: cell-based; conditions: Homo sapiens, […], five dose 0.01–100 µM, 48 h, read-out: GI50
NCI-H460 = assay: NCI-60 SRB screen, non-small cell lung cancer; format: cell-based, human; conditions: NCI-H460, 48 h; for GI50: Homo sapiens, five dose 0.01–100 µM, read-out: GI50
NCI-H552 = assay: NCI-60 SRB screen, non-small cell lung cancer; format: cell-based, human; conditions: 48 h; for GI50: Homo sapiens, NCI-H552, five dose 0.01–100 µM, read-out: GI50
HCT-15 = assay: NCI-60 SRB screen, colon cancer; format: cell-based, human; conditions: HCT-15, 48 h; for GI50: Homo sapiens, five dose 0.01–100 µM, read-out: GI50
KM12 = assay: NCI-60 SRB screen, colon cancer; format: cell-based, human; conditions: KM12, 48 h; for GI50: Homo sapiens, five dose 0.01–100 µM, read-out: GI50
SW-620 = assay: NCI-60 SRB screen, colon cancer; format: cell-based, human; conditions: SW-620, 48 h; for GI50: Homo sapiens, five dose 0.01–100 µM, read-out: GI50
SF295 = assay: NCI-60 SRB screen, CNS cancer; format: cell-based, human; conditions: SF-295, 48 h; for GI50: Homo sapiens, SF295, five dose 0.01–100 µM, read-out: GI50
SNB-75 = assay: NCI-60 SRB screen, CNS cancer; format: cell-based, human; conditions: SNB-75, 48 h; for GI50: Homo sapiens, five dose 0.01–100 µM, read-out: GI50
DU-145 = assay: NCI-60 SRB screen, prostate cancer; format: cell-based, human; conditions: DU-145, 48 h; for GI50: Homo sapiens, five dose 0.01–100 µM, read-out: GI50
LOX IMVI = assay: NCI-60 SRB screen, melanoma; format: cell-based, human; conditions: 48 h; for GI50: Homo sapiens, five dose 0.01–100 µM, read-out: GI50
MALME-3M = assay: NCI-60 SRB screen, melanoma; format: cell-based, human; conditions: MALME-3M, 48 h; for GI50: Homo sapiens, five dose 0.01–100 µM, read-out: GI50
M14 = assay: NCI-60 SRB screen, melanoma; format: cell-based, human; conditions: M14, 48 h; for GI50: Homo sapiens, five dose 0.01–100 µM, read-out: GI50
MDA-MB-435 = assay: NCI-60 SRB screen, melanoma; format: cell-based, human; conditions: MDA-MB-435, 48 h; for GI50: Homo sapiens, five dose 0.01–100 µM, read-out: GI50
SK-MEL-2 = assay: NCI-60 SRB screen, melanoma; format: cell-based, human; conditions: SK-MEL-2, 48 h; for GI50: Homo sapiens, five dose 0.01–100 µM, read-out: GI50
SK-MEL-28 = assay: NCI-60 SRB screen, melanoma; format: cell-based, human; conditions: SK-MEL-28, 48 h; for GI50: Homo sapiens, five dose 0.01–100 µM, read-out: GI50
OVCAR-4 = assay: NCI-60 SRB screen, ovarian cancer; format: cell-based, human; conditions: OVCAR-4, 48 h; for GI50: Homo sapiens, five dose 0.01–100 µM, read-out: GI50
OVCAR-8 = assay: NCI-60 SRB screen, ovarian cancer; format: cell-based, human; conditions: OVCAR-8, 48 h; for GI50: Homo sapiens, five dose 0.01–100 µM, read-out: GI50
NCI/ADR-RES = assay: NCI-60 SRB screen, ovarian cancer; format: cell-based, human; conditions: 48 h; for GI50: Homo sapiens, five dose 0.01–100 µM, read-out: GI50
ACHN = assay: NCI-60 SRB screen, renal cancer; format: cell-based, human; conditions: 48 h; for GI50: Homo sapiens, five dose 0.01–100 µM, read-out: GI50
SN12C = assay: NCI-60 SRB screen, renal cancer; format: cell-based, human; conditions: 48 h; for GI50: Homo sapiens, five dose 0.01–100 µM, read-out: GI50
UO-31 = assay: NCI-60 SRB screen, renal cancer; format: cell-based, human; conditions: UO-31, 48 h; for GI50: Homo sapiens, five dose 0.01–100 µM, read-out: GI50
MDA-MB-231/ATCC = assay: NCI-60 SRB screen, breast cancer; format: cell-based, human; conditions: 48 h; for GI50: five dose 0.01–100 µM, read-out: GI50
MDA-MB-468 = assay: NCI-60 SRB screen, breast cancer; format: cell-based, human; conditions: MDA-MB-468, 48 h; for GI50: Homo sapiens, five dose 0.01–100 µM, read-out: GI50
MCF-7 = assay: cells; conditions: Homo sapiens; for GI50: MCF7, 48 h
[2] = system: NCI 60 human cancer cell line panel; assay: NCI 60 cell line screen (SRB), panel values; conditions: for CC50 / GI50 / IC (TGI (total growth inhibition)): Homo sapiens, 60 cell; for IC (TGI (total growth inhibition)): read-out: Mean TGI
NCI-H226 = assay: NCI-60 SRB screen, non-small cell lung cancer; format: cell-based; conditions: Homo sapiens; NCI-H226; five dose 0.01–100 µM, 48 h; read-out: GI50

`C=C(C)C1C(=O)N(c2cc(OC)c(OC)c(OC)c2)C1c1ccc(OC)c(O)c1` (centres unmarked) [9q, 4-(3-Hydroxy-4-methoxyphenyl)-1-(3,4,5-trimethoxyphenyl)-3-(prop-1-en-2-yl)azetidin-2-one] was tested, and the IC50 [1] was 23.9 nM, the GI50 (K-562) was 35.2 nM and the “% Growth” value (K-562; K-562, one dose 10 µM, 48 h) was 2.20%. The GI50 (MOLT-4) was 20.2 nM, the “% Growth” value (MOLT-4; one dose 10 µM) was -15.34% and the “% Growth” value (A549/ATCC; A549/A TCC, one dose 10 µM) was 14.76%. For the same compound, the GI50 (A549/ATCC) was 27.8 nM, the “% Growth” value (EKVX) was 68.88% and the “% Growth” value (HOP-92; one dose 10 µM) was 16.15%. The GI50 (HOP-92) was 15.4 nM, the GI50 (NCI-H332M) was 47.7 nM and the GI50 (NCI-H460) was 30 nM. For the same compound, the “% Growth” value (NCI-H460; one dose 10 µM) was 3.52%, the GI50 (NCI-H552) was under 10 nM and the “% Growth” value (NCI-H552; NCI-H522, one dose 10 µM) was -43.45%. For the same compound, the “% Growth” value (HCT-15; one dose 10 µM) was 15.23%, the GI50 (HCT-15) was 29.9 nM and the GI50 (KM12) was under 10 nM. For the same compound, the “% Growth” value (KM12; one dose 10 µM) was -24.63%, the GI50 (SW-620) was 33.4 nM and the “% Growth” value (SW-620; one dose 10 µM) was 17.89%. The GI50 (SF295) was under 10 nM, the “% Growth” value (SF295; one dose 10 µM) was 20.26% and the GI50 (SNB-75) was 47.3 nM. The “% Growth” value (SNB-75; one dose 10 µM) was 41.90%, the “% Growth” value (DU-145; one dose 10 µM) was -52.00% and the GI50 (DU-145) was 21.5 nM. The GI50 (LOX IMVI) was under 10 nM, the “% Growth” value (LOX IMVI; one dose 10 µM) was 30.61% and the GI50 (MALME-3M) was 20500 nM. For the same compound, the “% Growth” value (MALME-3M; one dose 10 µM) was 63.23%, the GI50 (M14) was 17.3 nM and the “% Growth” value (M14; one dose 10 µM) was 3.41%. For the same compound, the GI50 (MDA-MB-435) was under 10 nM, the “% Growth” value (MDA-MB-435; one dose 10 µM) was -13.45% and the GI50 (SK-MEL-2) was 44.6 nM. The “% Growth” value (SK-MEL-2; one dose 10 µM) was 9.55%, the GI50 (SK-MEL-28) was 64300 nM and the “% Growth” value (SK-MEL-28; one dose 10 µM) was 65.72%. The GI50 (OVCAR-4) was under 10 nM, the “% Growth” value (OVCAR-4; one dose 10 µM) was 25.51% and the GI50 (OVCAR-8) was under 10 nM. The “% Growth” value (OVCAR-8; one dose 10 µM) was 14.64%, the GI50 (NCI/ADR-RES) was under 10 nM and the “% Growth” value (NCI/ADR-RES; one dose 10 µM) was -2.95%. For the same compound, the GI50 (ACHN) was 21.3 nM, the “% Growth” value (ACHN; one dose 10 µM) was 34.94% and the GI50 (SN12C) was 37 nM. The “% Growth” value (SN12C; one dose 10 µM) was 31.39%, the GI50 (UO-31) was 87.8 nM and the “% Growth” value (UO-31; one dose 10 µM) was 29.39%. For the same compound, the GI50 (MDA-MB-231/ATCC; Homo sapiens, MDA-MB-231/ATCC) was 16.8 nM, the IC50 (MDA-MB-231/ATCC; Homo sapiens, MDA-MB-231, obtained from NCI, five concentrations 0.01–100 μM, read-out: Antiproliferative Activity IC50) was 23.9 nM and the “% Growth” value (MDA-MB-231/ATCC; MDA-MB-231/ATCC, one dose 10 µM) was -6.67%. The GI50 (MDA-MB-468) was under 10 nM, the “% Growth” value (MDA-MB-468; one dose 10 µM) was 13.36% and the IC50 (MCF-7; MCF7) was under 10 nM. The GI50 (MCF-7) was under 10 nM, the CC50 (MCF-7; MCF7, read-out: LC50) was over 100000 nM and the CC50 ([2]; 9 h, read-out: LC50) was over 100000 nM. The GI50 ([2]; breast cancer cell lines MCF-7, MDA-MB-231, HS 578T, BT-549, MDA-MB-468) was 10 to 16 nM, the GI50 ([2]; in 48 of the panel cell lines tested) was under 50 nM and the CC50 ([2]; read-out: Mean LC50) was 81300 nM. For the same compound, the IC (TGI (total growth inhibition)) [2] was 32400 nM, the GI50 in words ([2]; all cell lines investigated except T-47D) was “sub-micromolar” and the TGI ([2]; for 34 of the cell lines tested) was over 100000 nM. The “% Growth, Delta” value ([2]; one dose 10 µM, 48 h) was 65.02%, the “% Growth, Range” value ([2]; one dose 10 µM, 48 h) was 126.47% and the “% Growth, Mean” value ([2]; one dose 10 µM, 48 h, all cell lines) was 13.02%.
In the case of `COc1ccc(C2C(C(C)C)C(=O)N2c2cc(OC)c(OC)c(OC)c2)cc1OP(=O)(O)O` (centres unmarked) [15b, 5-(3-Isopropyl-1-(3,4,5-trimethoxyphenyl)-4-oxoazetidin-2-yl)-2-methoxyphenyl dihydrogen phosphate], the GI50 (K-562) is reported as 374 nM, the GI50 (MOLT-4) is reported as 493 nM and the GI50 (A549/ATCC) is reported as 353 nM. It also gave a GI50 (HOP-92) of 11200 nM, a GI50 (NCI-H226) of over 100000 nM and a GI50 (NCI-H332M) of 592 nM. The GI50 (NCI-H460) was 325 nM, the GI50 (NCI-H552) was 237 nM and the GI50 (HCT-15) was 298 nM. It also gave a GI50 (KM12) of 180 nM, a GI50 (SW-620) of 373 nM and a GI50 (SF295) of 137 nM. The GI50 (SNB-75) was 116 nM, the GI50 (DU-145) was 368 nM and the GI50 (LOX IMVI) was 328 nM. For the same compound, the GI50 (MALME-3M) was over 100000 nM, the GI50 (M14) was 291 nM and the GI50 (MDA-MB-435) was 73.8 nM. For the same compound, the GI50 (SK-MEL-2) was 500 nM, the GI50 (SK-MEL-28) was 389 nM and the GI50 (OVCAR-4) was 282 nM. For the same compound, the GI50 (OVCAR-8) was 300 nM, the GI50 (NCI/ADR-RES) was 212 nM and the GI50 (ACHN) was 359 nM. For the same compound, the GI50 (SN12C) was 463 nM, the GI50 (UO-31) was 538 nM and the GI50 (MDA-MB-231/ATCC; Homo sapiens, MDA-MB-231/ATCC) was 215 nM. It also gave a GI50 (MDA-MB-468) of 273 nM, a GI50 (MCF-7) of 244 nM and a GI50 ([2]; read-out: Mean GI50, mean over all NCI 60 cell lines) of 525 nM. It also gave a CC50 ([2]; read-out: Mean LC50) of 93300 nM and an IC (TGI (total growth inhibition)) [2] of 44700 nM.
